{
  "source": "patent US12075777B2",
  "about": "“Antimicrobial formulation” (Anitox Corporation, priority 2011, dated 2024)",
  "origin": "cited, not measured here",
  "key": {"[1]": {"system": "Staphylococcus aureus, E. coli and Salmonella typhimurium"}, "[2]": {"details": "0, 0.1, 0.2, 0.3 and 0.4% in water"}, "yeast": {"system": "yeast", "design": "dose or concentration left out as unconfirmed", "details": "10^5 CFU/bottle; equivalence: trans-2-hexenal with thermal treatment (56° C.) vs citral"}, "[3]": {"system": "A. flavus, P. notatum, A. alternate, F. oxysporum, Cladosporium species, B. subtilis and A. tumerfaciens"}, "soybean seed": {"system": "soybean seed", "details": "1.8 of trans-2-hexenal/mL of air"}, "peaches and nectarines": {"system": "peaches and nectarines", "details": "at 40 μL/L"}, "pears and apples": {"system": "pears and apples", "details": "12.5 μL/L; twenty four hours to seven days exposure"}},
  "data": [
    {"smiles": "CC/C=C/CC=O", "note": "[(3E)-hexenal]", "values": [
      {"measurement": "effective level in controlling bacteria", "setting": "[1]", "value": "3 to 30", "unit": "µg/mL"}
    ]},
    {"smiles": "CC(=O)O", "note": "[acetic acid]", "values": [
      {"measurement": "effect on performance or intestinal microbial counts", "setting": "[2]", "value": "did not affect performance or intestinal microbial counts"}
    ]},
    {"smiles": "CC(C)=CCCC(C)=CC=O", "note": "[citral]", "values": [
      {"measurement": "concentration controlling yeast in beverages", "setting": "yeast", "value": "100-120 ppm"},
      {"measurement": "concentration in growth media that reduced the concentration of E. coli", "setting": "E. coli", "value": "more than 0.01%"},
      {"measurement": "concentration with bactericidal effect", "setting": "E. coli", "value": 0.08, "unit": "%"}
    ]},
    {"smiles": "CCC/C=C/C=O", "note": "[trans-2-hexenal]", "values": [
      {"measurement": "concentration that completely inhibited growth", "setting": "[3]", "value": 8, "unit": "ng/L air"},
      {"measurement": "inhibition of soybean seed germination", "setting": "soybean seed", "value": "~100", "unit": "%"},
      {"measurement": "phytotoxicity", "setting": "peaches and nectarines", "value": "phytotoxic"},
      {"measurement": "body weight and intake", "setting": "4000 ppm in diet, 13 wk", "value": "reduction in body weight and intake, but it was not significant"},
      {"measurement": "changes in hematological parameters or organ weights", "setting": "dietary levels of 0, 260, 640, 1600 or 4000 ppm fed for 13 wk", "value": "did not induce any changes"},
      {"measurement": "effect on fruit appearance, color, firmness, soluble solids content or titrateable acidity", "setting": "pears and apples", "value": "did not affect"}
    ]}
  ]
}
